The results in this text go back to patent US6849732B2, “Metalloproteinase inhibitors, pharmaceutical compositions containing them and their pharmaceutical uses, and methods and intermediates useful for their preparation” (Agouron Pharmaceuticals, Inc., priority 1995, dated 2005).

Structures can show the parent of a compound that is named as a salt. Where two headings read alike, the source gives them in different places.

Holding throughout (assay type): biochemical
The target in one experiment is T1, matrilysin (Matr.) (Homo sapiens, UniProt P09237).
T1 sequence (P09237 95-267): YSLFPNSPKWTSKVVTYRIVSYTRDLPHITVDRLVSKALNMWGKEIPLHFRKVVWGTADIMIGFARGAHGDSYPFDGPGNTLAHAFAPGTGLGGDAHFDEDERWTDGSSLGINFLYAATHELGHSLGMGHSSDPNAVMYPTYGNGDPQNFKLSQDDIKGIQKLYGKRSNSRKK
The experiment can be described thus: MCA fluorogenic enzyme assay, competitive inhibition analysis (Ki,app), matrilysin. The note with it: MCA peptide substrate, 37° C., pH 7.5, read-out: Enzyme Inhibition Constants (K1) Matr. The method, then:
Stromelysin enzymatic activity was measured using a modified version of a resonance energy transfer fluorogenic assay as described in FEBS, vol. 296(3), p. 263 (1992), the disclosure of which is incorporated herein by reference. The MCA-peptide substrate is shown below. The fluorescent MCA group is quenched by resonance energy transfer to the 2,4-dinitrophenyl group. Matrix metalloproteinases cleave this substrate at the Gly-Leu bond. Cleavage results in the loss of energy transfer and a large increase in fluorescence of the MCA group. [drawing 56] 7-methoxycoumarin-4-yl-acetyl-pro-leu-gly-leu-3-(2,4-dinitrophenyl)-L-2,3-diaminoproprionyl-ala-arg-NH2
The MCA assay was performed at 37° C. in buffer containing 50 mM Tricine (pH 7.5), 10 mM CaCl2, 200 mM NaCl, and 1% DMSO with the following concentrations of matrix metalloproteinases: 1.4 nM stromelyin, 0.063 nM matrilysin, and 0.030 nM gelatinase A. The concentration of MCA substrate was 10 or 20 μM in a final volume of 1.6 mL. Fluorescence data was collected with Perkin-Elmer LS-5B and LS-5B spectrofluorimeters with λexcitation=328 nm and λemission=393 nm. Spectrofluorimeters were interfaced with IBM-compatible microcomputer systems.
The Km for the MCA peptide substrate with the matrix metalloproteinases is quite high and exceeds its solubility under assay conditions. Consequently, the apparent Ki (Ki,app) was determined to describe the strength of inhibition. However, in this case, Ki,app would be essentially equal to Ki since [S]<<Km. For the determination of Ki,app, the concentration of the inhibitor was varied at a constant and low concentration of substrate and the steady-state rates of fluorescence change determined. In most cases absorptive quench due to the presence of ligand was not observed. For slow-binding inhibitors, onset of inhibition curves were collected for at least 45 minutes so that equilibrium was established. Steady-state rates of fluorescence change were obtained by fitting a curve to an equation for a single exponential decay containing a linear phase. The fitted value of the linear phase was taken as the steady-state rate. The steady-state rates were fitted to the Michaelis equation describing competitive inhibition by non-linear methods. Data resulting from tight-binding inhibition was analyzed, and Ki,app determined by fitting the data to the tight-binding equation of Morrison See (Biochem. Biophys. Acta, vol. 185, pp. 269-286 (1969)) by non-linear methods.

In the next experiment the target is T2, gelatinase A (HG72kD) (Homo sapiens, UniProt P08253).
T2 sequence (P08253 110-660): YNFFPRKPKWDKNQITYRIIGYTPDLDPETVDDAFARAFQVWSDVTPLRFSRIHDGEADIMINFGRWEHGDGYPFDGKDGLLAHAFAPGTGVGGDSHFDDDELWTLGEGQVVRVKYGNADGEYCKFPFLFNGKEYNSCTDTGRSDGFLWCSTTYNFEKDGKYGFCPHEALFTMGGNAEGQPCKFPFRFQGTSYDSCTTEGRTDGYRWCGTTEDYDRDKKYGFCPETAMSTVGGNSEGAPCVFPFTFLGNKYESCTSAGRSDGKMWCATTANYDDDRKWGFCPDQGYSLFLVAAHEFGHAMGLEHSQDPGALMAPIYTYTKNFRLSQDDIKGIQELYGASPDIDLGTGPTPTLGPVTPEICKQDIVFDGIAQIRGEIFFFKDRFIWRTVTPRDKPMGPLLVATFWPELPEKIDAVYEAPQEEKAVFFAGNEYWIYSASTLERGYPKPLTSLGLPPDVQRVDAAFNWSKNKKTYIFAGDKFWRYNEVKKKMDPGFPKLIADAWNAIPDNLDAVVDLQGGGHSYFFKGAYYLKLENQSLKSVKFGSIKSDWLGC
Nature of the experiment: MCA fluorogenic enzyme assay, competitive inhibition analysis (Ki,app), gelatinase A. The following applies: MCA peptide substrate, 37° C., pH 7.5, read-out: Enzyme Inhibition Constants (K1) HG72kD.

The target of the next experiment is stromelysin (HSLN) (Homo sapiens, UniProt P08254). Nature of the experiment: MCA fluorogenic enzyme assay, competitive inhibition analysis (Ki,app), stromelysin.
Chain of stromelysin (HSLN) (P08254 100-477): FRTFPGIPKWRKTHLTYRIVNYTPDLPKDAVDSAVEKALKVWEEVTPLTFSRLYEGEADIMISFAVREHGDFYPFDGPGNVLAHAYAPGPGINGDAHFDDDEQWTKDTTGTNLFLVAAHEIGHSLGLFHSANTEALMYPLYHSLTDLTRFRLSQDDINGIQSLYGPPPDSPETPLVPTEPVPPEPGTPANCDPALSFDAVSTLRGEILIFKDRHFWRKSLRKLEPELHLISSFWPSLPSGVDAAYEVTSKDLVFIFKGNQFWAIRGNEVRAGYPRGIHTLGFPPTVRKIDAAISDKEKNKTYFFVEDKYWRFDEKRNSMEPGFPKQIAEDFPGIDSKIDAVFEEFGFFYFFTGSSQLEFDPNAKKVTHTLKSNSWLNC
In another experiment the target is Coll3 (Homo sapiens, UniProt P45452). The experiment can be described thus: MCA fluorogenic enzyme assay, competitive inhibition analysis (Ki,app), Coll3. The note with it: MCA peptide substrate, 37° C., pH 7.5, read-out: Enzyme Inhibition Constants (K1) Coll3.
A further experiment deals with T3, HFC (Homo sapiens, UniProt P03956).
T3 sequence (P03956 100-469): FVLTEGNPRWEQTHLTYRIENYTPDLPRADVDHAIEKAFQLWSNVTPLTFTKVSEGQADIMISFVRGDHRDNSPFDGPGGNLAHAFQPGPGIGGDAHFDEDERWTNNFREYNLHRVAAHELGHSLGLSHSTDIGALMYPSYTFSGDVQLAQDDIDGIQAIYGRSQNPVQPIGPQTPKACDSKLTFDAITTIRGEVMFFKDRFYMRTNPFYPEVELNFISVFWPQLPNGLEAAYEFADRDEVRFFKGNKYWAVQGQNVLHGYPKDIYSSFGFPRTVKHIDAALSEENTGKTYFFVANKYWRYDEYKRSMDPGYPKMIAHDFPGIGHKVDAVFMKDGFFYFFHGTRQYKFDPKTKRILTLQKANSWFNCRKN
The experiment can be described thus: MCA fluorogenic enzyme assay, competitive inhibition analysis (Ki,app), HFC. The note with it: MCA peptide substrate, 37° C., pH 7.5, read-out: Enzyme Inhibition Constants (K1) HFC.

Where [1] appears, read: Ki,app, MCA peptide substrate, 37° C., pH 7.5, read-out: Enzyme Inhibition Constants (K1) HSLN.

Regarding `O=C(NO)[C@H]1CNCCN1S(=O)(=O)c1ccc(Oc2ccc(F)cc2)cc1` [Example 10(b), 2(R)-N-hydroxy-1-(4-(4-fluorophenoxy)benzenesulfonyl)-piperazine-2-carboxamide hydrochloride], the Ki at matrilysin (Matr.) is 365 nM; at gelatinase A (HG72kD), 0.232 nM; on stromelysin (HSLN) (setting [1]) it was 0.98 nM; on Coll3 it was 0.257 nM; at HFC it was 44 nM.

`CC(C)(C)OC(=O)N1CCN(S(=O)(=O)c2ccc(Oc3ccc(C#N)cc3)cc2)C(C(=O)NO)C1` (racemic) [Example 9(c), 2(R/S)-N-hydroxy-1-(4-(4-cyanophenoxy)benzenesulfonyl)-4-(t-butoxycarbonyl)-piperazine-2-carboxamide]: the Ki at matrilysin (Matr.) came out at 3570 nM; on gelatinase A (HG72kD) it was 0.696 nM; on stromelysin (HSLN) (setting [1]), 14 nM; at Coll3, 1.97 nM; at HFC, 580 nM.

For the compound `O=C(NO)[C@H]1CNCCN1S(=O)(=O)c1ccc(Oc2ccc(Cl)cc2)cc1` [Example 10(a), 2(R)-N-hydroxy-1-(4-(4-chlorophenoxy)benzenesulfonyl)-piperazine-2-carboxamide hydrochloride], the Ki at matrilysin (Matr.) was determined as 171 nM; at gelatinase A (HG72kD), 0.413 nM; at stromelysin (HSLN) (setting [1]), 1 nM; at Coll3, 0.363 nM; on HFC, 34 nM.

As to `O=C(NO)[C@@H]1C[S@+]([O-])CCN1S(=O)(=O)c1ccc(Oc2ccc(Br)cc2)cc1` (racemic) [Example 14(a), 1(R/S),3(R/S)-N-hydroxy-1-oxo-4-(4-(4-bromophenoxy)benzene-sulfonyl)-tetrahydro-2H-1,4-thiazine-3-carboxamide], the Ki was found to be 109 nM at matrilysin (Matr.); 0.013 nM at gelatinase A (HG72kD); 0.41 nM at stromelysin (HSLN) (setting [1]); 0.017 nM on Coll3; 23 nM on HFC.

With `CC1(C)SCCN(S(=O)(=O)c2ccc(Oc3ccccn3)cc2)[C@H]1C(=O)NO` [Example 18(b), 3(S)-N-hydroxy-4-(4-((pyrid-2-yl)oxy)benzenesulfonyl)-2,2-dimethyl-tetrahydro-2H-1,4-thiazine-3-carboxamide], the Ki on matrilysin (Matr.) is 70 nM; on gelatinase A (HG72kD), 0.202 nM; at stromelysin (HSLN) it was 0.51 nM; on Coll3 it was 0.074 nM; at HFC, 12 nM.

As for `CS(=O)(=O)N1CCN(S(=O)(=O)c2ccc(Oc3ccc(F)cc3)cc2)[C@@H](C(=O)NO)C1` [Example 12(b)], the Ki on matrilysin (Matr.) is 52 nM; at gelatinase A (HG72kD), 0.007 nM; at stromelysin (HSLN) (setting [1]) it was 0.13 nM; at Coll3, 0.005 nM; at HFC it was 4.7 nM.

As to “3(S)-4-(4-(4-(furan-3-yl)phenoxy)benzenesulfonyl-N-hydroxy-tetrahydro-2H-1,4-thiazine-3-carboxamide [Example 20]”, the Ki on matrilysin (Matr.) was 0.7 nM; on gelatinase A (HG72kD), 0.0017 nM; on stromelysin (HSLN) (setting [1]) it was 0.06 nM; on Coll3 it was 0.002 nM; on HFC, 1.4 nM.

Turning to `O=C(NO)C1C[S+]([O-])CCN1S(=O)(=O)c1ccc(Oc2ccc(F)cc2)cc1` (racemic) [Example 14(b), 1(R/S),3(R/S)-N-hydroxy-1-oxo-4-(4-(4-fluorophenoxy)benzene-sulfonyl)-tetrahydro-2H-1,4-thiazine-3-carboxamide], the Ki at matrilysin (Matr.) came to 306 nM; on gelatinase A (HG72kD), 0.034 nM; on stromelysin (HSLN) (setting [1]), 0.79 nM; on Coll3, 0.016 nM; at HFC it was 28 nM.

For the compound `O=C(NO)C1CSCCN1S(=O)(=O)c1ccc(Oc2ccc(F)cc2)cc1` (racemic) [Example 13(c), 3(R/S)-N-hydroxy-4-(4-(4-fluorophenoxy)benzenesulfonyl)-tetrahydro-2H-1,4-thiazine-3-carboxamide], the Ki at matrilysin (Matr.) is 313 nM; on gelatinase A (HG72kD), 0.028 nM; at stromelysin (HSLN) (setting [1]), 0.53 nM; at Coll3 it was 0.035 nM; on HFC, 40 nM.

With `O=C1C[C@H](C(=O)NO)N(S(=O)(=O)c2ccc(Oc3ccccc3)cc2)CN1` [Example 15(a), 6(R)-(N-hydroxycarbamoyl)-1-(4-phenoxy)benzenesulfonyl-tetrahydropyrimidin-4-one], the Ki on matrilysin (Matr.) was determined as 1300 nM; on gelatinase A (HG72kD), 0.057 nM; at stromelysin (HSLN) (setting [1]), 4.6 nM; at Coll3 it was 0.124 nM; on HFC it was 210 nM.

With `CC1(C)SCCN(S(=O)(=O)c2ccc(Oc3ccc(Br)cc3)cc2)[C@H]1C(=O)NO` [Example 16(a), 3(S)-N-hydroxy-4-(4-(4-bromophenoxy)benzenesulfonyl)-2,2-dimethyl-tetrahydro-2H-1,4-thiazine-3-carboxamide], the Ki at matrilysin (Matr.) stood at 2.8 nM; at gelatinase A (HG72kD), 0.003 nM; at stromelysin (HSLN) (setting [1]), 0.017 nM; on Coll3, 0.001 nM; at HFC it was 0.56 nM.

As to `CC1(C)[C@H](C(=O)NO)N(S(=O)(=O)c2ccc(Oc3ccc(Br)cc3)cc2)CC[S@@+]1[O-]` [Example 17(a), 1(R),3(S)-N-hydroxy-4-(4-(4-bromophenoxy)benzenesulfonyl)-2,2-dimethyl-1-oxo-tetrahydro-2H-1,4-thiazine-3-carboxamide], the Ki on matrilysin (Matr.) was found to be 11 nM; at gelatinase A (HG72kD) it was 0.009 nM; at stromelysin (HSLN) (setting [1]), 0.056 nM; at Coll3, 0.01 nM; on HFC, 3.6 nM.

As for `Cn1cnc(S(=O)(=O)N2CCN(S(=O)(=O)c3ccc(Oc4ccc(Cl)cc4)cc3)[C@@H](C(=O)NO)C2)c1` [Example 12(d), 2 (R)-N-hydroxy-1-(4-(4-chlorophenoxy)benzenesulfonyl)-4-(1-methylimidazole-4-sulfonyl)-piperazine-2-carboxamide], the Ki on matrilysin (Matr.) amounted to 40 nM; on gelatinase A (HG72kD), 0.004 nM; at stromelysin (HSLN) (setting [1]), 0.09 nM; at Coll3, 0.006 nM; at HFC, 7 nM.

As for `CS(=O)(=O)N1CCN(S(=O)(=O)c2ccc(Oc3ccc(Cl)cc3)cc2)[C@@H](C(=O)NO)C1` [Example 12(a), 2(R)-N-hydroxy-1-(4-(4-chlorophenoxy)benzenesulfonyl)-4-(methanesulfonyl)-piperazine-2-carboxamide], the Ki at matrilysin (Matr.) turned out to be 28 nM; at gelatinase A (HG72kD) it was 0.003 nM; at stromelysin (HSLN) (setting [1]), 0.043 nM; at Coll3, 0.002 nM; on HFC, 2.5 nM.
